Measured values reported in patent publication US8030443B2, “Squamous cell carcinoma antigen-derived peptide binding to HLA-A24 molecule” (Kurume University, priority 2005, dated 2011).
Residues, ends and D or L forms follow the SMILES beside them.

Test system: YES-2 (HLA-A24^+, SCCA^+) esophageal squamous cell carcinoma cells
Experiment: 6-h 51Cr-release cytotoxicity assay of peptide-stimulated CTLs
Type: cell-based, human
From the text: Cultured cells in wells producing IFN-γ in response to a corresponding peptide were collected and further cultured with IL-2 alone for 10-14 days in order to obtain a sufficiently large number of cells to perform a standard 6-h ^51Cr-release assay. The following tumor cell lines were used as targets; YES-1 (HLA-A24^− and SCCA^+ esophageal squamous cell carcinoma), and YES-2 (HLA -A24^+ and SCCA^+ esophageal squamous cell carcinoma). Phytohemagglutinin (PHA)-stimulated blastoid T cells were also used as a negative control. In some experiments, 20 μg/ml of anti-HLA-class I (W6/32, IgG2a) (BioLegend, Camino Santa Fe, San Diego, Calif., USA), anti-HLA-class II (H-DR-1, IgG2a) (kindly provided by Dr. Yasuji NISHIMURA, KUMAMOTO UNIVERSITY, Japan), anti-CD4 (Nu-Th/i, IgG1) (established at Department of Immunology, Kurume University School of Medicine, Japan), or anti-CD8 (Nu-Ts/c, IgG2a) monoclonal antibody (mAb) (established at Department of Immunology, Kurume University School of Medicine, Japan) were added to the wells at the initiation of the assay. An anti-CD14 (JML-H14, IgG2a) mAb (established at Department of Immunology, Kurume University School of Medicine, Japan) was used as a negative control.

SMILES | Cytotoxicity of peptide-stimulated CTLs against YES-2 cells | Cytotoxicity of peptide-stimulated CTLs/PBMCs (SCC patients (Pts 2, 5, 7, 8), targets YES-2, YES-1, PHA-stimulated T-cell blasts (FIG. 4B))
CC(C)C[C@H](NC(=O)[C@H](Cc1ccc(O)cc1)NC(=O)[C@H](CCC(=O)O)NC(=O)[C@H](CCC(N)=O)NC(=O)[C@H](CC(C)C)NC(=O)[C@H](Cc1ccccc1)NC(=O)[C@H](CC(C)C)NC(=O)[C@H](Cc1ccc(O)cc1)NC(=O)[C@@H](N)[C@@H](C)O)C(=O)O [SCCA 112, TYLFLQEYL] (H-TYLFLQEYL-OH) | exhibited cytotoxicity against YES-2 cells in an HLA class I-restricted manner | 
CC(C)C[C@H](NC(=O)[C@H](CO)NC(=O)[C@H](C)NC(=O)[C@H](Cc1ccccc1)NC(=O)[C@H](Cc1c[nH]cn1)NC(=O)[C@H](Cc1ccccc1)NC(=O)[C@H](CO)NC(=O)[C@@H](NC(=O)[C@H](Cc1ccc(O)cc1)NC(=O)[C@@H](N)CCC(N)=O)[C@@H](C)O)C(=O)O [SCCA 215, QYTSFHFASL] (H-QYTSFHFASL-OH) | exhibited cytotoxicity against YES-2 cells in an HLA class I-restricted manner | 
CC[C@H](C)[C@H](NC(=O)CNC(=O)[C@H](CC(C)C)NC(=O)[C@H](CC(C)C)NC(=O)[C@H](CCC(N)=O)NC(=O)[C@H](CCC(N)=O)NC(=O)[C@H](CCCNC(=N)N)NC(=O)[C@H](CC(C)C)NC(=O)[C@H](Cc1ccc(O)cc1)NC(=O)[C@@H](N)CCCNC(=N)N)C(=O)O [HIV peptide, RYLRQQLLGI, reference compound] (H-RYLRQQLLGI-OH) |  | did not show any cytotoxicity
